In US20090325270A1, “USE OF 2-HYDROXY-5-OXOPROLINE IN CONJUNCTION WITH ALGAE” (priority 2008, published 2009):

Tested on: pale-green mutant Nannochloropsis
Test: Growth of algae cultures treated with 2-hydroxy-5-oxoproline (Example One, FIG. 3)
Assay type: cell-based
Source text: At step 130, the pale-green mutant Nannochloropsis may be cultivated in an aqueous environment having an effective amount of 2-hydroxy-5-oxoproline. The effective amount of 2-hydroxy-5-oxoproline may increase the growth rate of the pale-green mutant Nannochloropsis.
1. Light intensity was 600 micro-Einsteins.
2. Temperature was held constant at 25 C.
3. Cultures were inoculated to the same extent (as determined by optical density at […], O.D. 750).
4. The bicarb controls were used because the AB1 chemical, which is the 2-hydroxy-5-oxoproline compound, was dissolved in a bicarbonate buffer. This control was to make sure that differences in growth were not due to the presence of bicarbonate. The bicarb controls contain the same concentration of bicarbonate as the AB1 flasks.
5. The cultures were grown on urea as the nitrogen-source.
The bicarb controls were inoculated with 10 mls of 1.3 M bicarbonate solution (pH 9.5). The AB-1 treated cultures had approximately 0.1 g of 2-hydroxy-5-oxoproline added with the algal inoculum. No treat 2 had approximately 50% more cells inoculated as no treat 1, bicarb 1 and 2 and the AB-1 cultures. […] The difference in slope between the AB-1 cultures and the no-treat 1 and bicarb controls was approximately 50%-60%. Therefore, by feeding 2-hydroxy-5-oxoproline to pale-green mutant Nannochloropsis, a greater growth rate could be achieved, which would allow high cell density cultures to be produced quicker, so the advantages of the pale-green phenotype over the wild-type become apparent.

## O=C1CC[C@@](O)(C(=O)O)N1 [AB-1, 2-hydroxy-5-oxoproline]
Approximately 0.1 g 2-hydroxy-5-oxoproline added with inoculum to 800 mls media, approximately 300 hours, constant illumination 600 micro-Einsteins, 25 C, urea as nitrogen-source
  difference in slope (growth) between the AB-1 cultures and the no-treat 1 and bicarb controls: 50%-60%
Approximately 0.1 g 2-hydroxy-5-oxoproline in 800 mls media, approximately 300 hours
  growth compared with no treat 2 (approximately 50% more cells inoculated): grew as if they had been inoculated with more cells than had actually been added
As measured by absorbance at 750 nm, effective amount of 2-hydroxy-5-oxoproline
  faster growth than culture without 2-hydroxy-5-oxoproline: fifty to sixty
